Values joined by “and” are separate entries in the source; they are usually repeats but may differ in a detail not shown here. Equal values may be shown once.
How the values were obtained:
αS = αS (Homo sapiens, UniProt P37840); conditions: in vitro; cited from earlier work
Solubility in water = assay type: physicochemical; conditions: pH<3.5 (the pH of gastric fluid)
[1] = system: patients with PD and constipation; assay: Stage 2 bowel function, stool related indices; assay type: in vivo, human; conditions: Stage 2, fixed dose, n = 34
Description: Following successful screening, all subjects underwent a 14-day run-in period where the degree of constipation was assessed through a validated daily log (Zinsmeister et al., 2013) establishing baseline CSBMs/week. Subjects with an average of <3 CSBMs/week proceeded to dosing.
(§1) In Stage 2, 34 patients were evaluated.
The primary efficacy outcome variable was whether or not a subject was a “success” or “failure.” This is an endpoint based on subject diary entries for the “fixed dose” period prior to the endpoint assessment defined as average complete stool frequency increase by 1 or more over baseline, or 3 or more complete spontaneous stools/week. The subject was deemed a “success” if s/he met one or more of the criteria listed above, otherwise the subject was deemed a “failure.” The primary analysis was based on all subjects with a baseline assessment and an assessment at the end of the “fixed-dose” period and was a comparison of the proportion of successes with 0.10 (the null hypothesis corresponding to no treatment effect).

[2] = Phase 2 trial Stage 2, adverse events; assay type: in vivo, human
Description: as §1

[3] = Phase 2 trial Stage 1, adverse events; assay type: in vivo, human; conditions: Stage 1 (10 dosed), single oral doses
Source text: Tolerability limits included diarrhea or vomiting.

C. elegans model of PD = C. elegans model of PD in vivo; cited from earlier work
[4] = Stage 2 (34 dosed), daily oral dosing
[5] = Stage 2 (34 dosed), daily oral dosing, unrelated to ENT-01

In the case of `CC(C)[C@@H](CC[C@@H](C)[C@H]1CC[C@H]2[C@@H]3[C@H](O)C[C@H]4C[C@@H](NCCCNCCCCN)CC[C@]4(C)[C@H]3CC[C@]12C)OS(=O)(=O)O` (single isomer, unassigned) [squalamine (ENT-01), squalamine], the “formation of aggregates of αS” value (αS) is listed as “inhibit the formation of aggregates of αS”, the dissolution (Solubility in water) is listed as “readily dissolves” and the “CSBM, weekly average (mean, SD)” value [1] is listed as 3.8 CSBM/week and 3.8 (2.40) CSBM/week. The “PAC-SYM (mean, SD)” value [1] was 1.1 (0.49), the “Suppository use / rescue medication, weekly average (mean, SD)” value [1] was 0.3 /week and the “Consistency, Bristol stool scale 1-7 (mean, SD)” value ([1]; listed as aminosterol) was 4.1. The “Ease of passage, Ease of evacuation scale (mean, SD)” value ([1]; listed as aminosterol) was 3.7, the “Abdominal pain, Mild” value [2, 4] was 4(11.7) n, % and the “Abdominal pain, Moderate” value [2, 4] was 2(5.8) n, %. For the same molecule, the “Blood in urine, Moderate” value [2, 4] was 0 n, %, the “Diarrhea, Mild” value [2, 4] was 12(35) n, % and the “Diarrhea, Moderate” value [2, 4] was 2(5.8) n, %. The “Diarrhea, Severe” value [2, 4] was 1(2.9) n, %, the “Difficulty falling asleep, Mild” value [2, 4] was 1(3) n, % and the “Difficulty falling asleep, Moderate” value [2, 4] was 0 n, %. The “Dizziness, Mild” value [2, 4] was 7(20.5) n, %, the “Dizziness, Moderate” value [2, 4] was 1(2.9) n, % and the “Eye infection, Mild” value [2, 4] was 1(3) n, %. The “Eye infection, Moderate” value [2, 4] was 0 n, %, the “Flatulence, Mild” value [2, 4] was 1(3) n, % and the “Flatulence, Moderate” value [2, 4] was 0 n, %. The “Headache, Mild” value [2, 4] was 3(8.8) n, %, the “Headache, Moderate” value [2, 4] was 0 n, % and the “Increased urinary frequency, Mild” value [2, 4] was 2(5.8) n, %. The “Increased urinary frequency, Moderate” value [2, 4] was 0 n, %, the “Loss of appetite, Moderate” value [2, 4] was 0 n, % and the “Nausea, Mild” value [2, 4] was 18(52) n, %. For the same molecule, the “Nausea, Moderate” value [2, 4] was 1(2.9) n, %, the “Skin lesions-rash, Mild” value [2, 4] was 3(8.8) n, % and the “Skin lesions-rash, Moderate” value [2, 4] was 0 n, %. For the same molecule, the “Urinary retention, Mild” value [2, 4] was 1(3) n, %, the “Urinary retention, Moderate” value [2, 4] was 0 n, % and the “Urinary tract infection, Mild” value [2, 4] was 1(3) n, %. For the same molecule, the “Urinary tract infection, Moderate” value [2, 4] was 2(5.8) n, %, the “Vomiting, Mild” value [2, 4] was 2(5.8) n, % and the “Vomiting, Moderate” value [2, 4] was 0 n, %. For the same molecule, the “Worsening acid reflux, Mild” value [2, 4] was 4(11.7) n, %, the “Worsening acid reflux, Moderate” value [2, 4] was 0 n, % and the “Worsening hemorrhoid, Mild” value [2, 4] was 1(3) n, %. The “Worsening hemorrhoid, Moderate” value [2, 4] was 0 n, %, the “Blood in urine, Mild” value [2, 5] was 0 n, % and the “Loss of appetite, Mild” value [2, 5] was 0 n, %. The “Lower GI bleed, Severe” value ([2]; Stage 2, daily oral dosing, colonic diverticulosis, polyp, patient on aspirin, Plavix and naproxen, unrelated to ENT-01) was 1(2.5) n, %, the “Abdominal pain, Mild” value [3] was 2(20) n, % and the “Abdominal pain, Moderate” value [3] was 3(30) n, %. The “Blood in urine, Moderate” value [3] was 0 n, %, the “Diarrhea, Mild” value [3] was 1(10) n, % and the “Diarrhea, Moderate” value [3] was 3(30) n, %. The “Diarrhea, Severe” value [3] was 0 n, %, the “Difficulty falling asleep, Mild” value [3] was 0 n, % and the “Difficulty falling asleep, Moderate” value [3] was 0 n, %. The “Dizziness, Mild” value [3] was 0 n, %, the “Dizziness, Moderate” value [3] was 0 n, % and the “Eye infection, Mild” value [3] was 0 n, %. For the same molecule, the “Eye infection, Moderate” value [3] was 0 n, %, the “Flatulence, Mild” value [3] was 2(20) n, % and the “Flatulence, Moderate” value [3] was 0 n, %. For the same molecule, the “Headache, Mild” value [3] was 1(10) n, %, the “Headache, Moderate” value [3] was 0 n, % and the “Increased urinary frequency, Mild” value [3] was 0 n, %. The “Increased urinary frequency, Moderate” value [3] was 0 n, %, the “Loss of appetite, Moderate” value [3] was 0 n, % and the “Lower GI bleed, Severe” value [3] was 0 n, %. For the same molecule, the “Nausea, Mild” value [3] was 4(40) n, %, the “Nausea, Moderate” value [3] was 0 n, % and the “Skin lesions-rash, Mild” value [3] was 0 n, %. For the same molecule, the “Skin lesions-rash, Moderate” value [3] was 0 n, %, the “Urinary retention, Mild” value [3] was 0 n, % and the “Urinary retention, Moderate” value [3] was 0 n, %. For the same molecule, the “Urinary tract infection, Mild” value [3] was 0 n, %, the “Urinary tract infection, Moderate” value [3] was 0 n, % and the “Vomiting, Mild” value [3] was 1(10) n, %. The “Vomiting, Moderate” value [3] was 0 n, %, the “Worsening acid reflux, Mild” value [3] was 0 n, % and the “Worsening acid reflux, Moderate” value [3] was 0 n, %. For the same molecule, the “Worsening hemorrhoid, Mild” value [3] was 0 n, %, the “Worsening hemorrhoid, Moderate” value [3] was 0 n, % and the “Blood in urine, Mild” value ([3]; unrelated to ENT-01) was 1(10) n, %. The “Loss of appetite, Mild” value ([3]; unrelated to ENT-01) was 1(10) n, % and the “formation of aggregates of αS” value (C. elegans model of PD) was “inhibit the formation of aggregates of αS”.
